Source: ChEMBL document CHEMBL1201862, “PubChem BioAssay data set” (2004)
Activity calls are given as the source filed them.

Key:
[1] = A Cell Based Secondary Assay To Explore Cytotoxicity of Compounds that Sensitize Mycobacterium Tuberculosis to Beta-Lactam Antibiotics.; format: functional
14-3-3 protein gamma = 14-3-3 protein gamma (Homo sapiens, UniProt P61981); test: modulators of 14-3-3 gamma client binding – dose response (AID 711); format: functional
Genome polyprotein = Genome polyprotein (Hepatitis C virus, UniProt Q2Q167); test: disruption of hepatitis C core self-association – biochemical, TR-FRET, dose response (AID 2159); set-up: species or system Hepacivirus hominis;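 also: blocks dimerization of HCV core protein measured by TR-FRET between tagged core106 pairs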
Genome polyprotein, sequence (Q2Q167 whole entry): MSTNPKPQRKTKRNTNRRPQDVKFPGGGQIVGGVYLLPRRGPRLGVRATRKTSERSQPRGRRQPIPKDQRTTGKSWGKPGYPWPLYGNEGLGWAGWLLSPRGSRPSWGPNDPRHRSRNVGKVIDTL

[2] = molecular target: Induced myeloid leukemia cell differentiation protein Mcl-1 (Homo sapiens, UniProt Q07820); format: functional
[3] = molecular target: T1, Probable nicotinate-nucleotide adenylyltransferase (Staphylococcus aureus (strain N315), UniProt P65502); format: functional, Staphylococcus aureus subsp. aureus N315;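 as to IC50 Mean: confirmatory dose-response retesting of NadD inhibitor hits first found in an ultra-high-throughput screen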
T1 sequence (P65502 whole entry): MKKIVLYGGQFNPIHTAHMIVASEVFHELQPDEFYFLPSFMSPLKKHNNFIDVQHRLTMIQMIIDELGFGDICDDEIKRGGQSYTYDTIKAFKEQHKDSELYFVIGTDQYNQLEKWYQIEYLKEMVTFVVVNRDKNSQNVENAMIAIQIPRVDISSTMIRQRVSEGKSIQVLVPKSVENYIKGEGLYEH

[4] = molecular target: T1, Probable nicotinate-nucleotide adenylyltransferase; format: functional, Staphylococcus aureus subsp. aureus N315; details: read-out: IC50_Mean
NS3 = NS3 (Hepatitis C virus, UniProt A3EZJ3); test: PubChem AID 2173; set-up: species or system Hepacivirus hominis
NS3, sequence (A3EZJ3 whole entry): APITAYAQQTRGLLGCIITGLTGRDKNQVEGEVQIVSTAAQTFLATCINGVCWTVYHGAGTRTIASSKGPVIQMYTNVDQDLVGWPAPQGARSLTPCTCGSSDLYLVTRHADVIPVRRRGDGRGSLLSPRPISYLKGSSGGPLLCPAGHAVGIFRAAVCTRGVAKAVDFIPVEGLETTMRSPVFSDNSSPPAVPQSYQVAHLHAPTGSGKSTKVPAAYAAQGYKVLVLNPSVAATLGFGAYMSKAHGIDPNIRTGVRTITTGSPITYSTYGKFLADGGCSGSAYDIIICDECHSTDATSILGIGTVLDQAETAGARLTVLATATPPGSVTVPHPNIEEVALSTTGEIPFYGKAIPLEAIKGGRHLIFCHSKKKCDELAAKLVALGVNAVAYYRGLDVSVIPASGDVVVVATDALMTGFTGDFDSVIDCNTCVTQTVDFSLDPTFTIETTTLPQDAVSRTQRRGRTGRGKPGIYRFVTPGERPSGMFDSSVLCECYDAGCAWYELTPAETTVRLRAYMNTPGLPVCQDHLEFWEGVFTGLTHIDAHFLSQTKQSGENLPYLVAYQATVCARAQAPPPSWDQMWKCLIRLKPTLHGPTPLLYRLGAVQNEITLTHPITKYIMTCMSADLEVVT

[5] = viability of uninfected HEp-2 cells – cell-based, HTS, cytotoxicity control for RSV inhibitor project, dose response (AID 2410); format: functional; details: human respiratory syncytial virus
[6] = molecular target: Transitional endoplasmic reticulum ATPase (Homo sapiens, UniProt P55072, C522A); test: C522A mutant p97 ATPase inhibitors, dose response, counter-screen for p97 inhibitor project, biochemical, luminescence (AID 1544)
Transitional endoplasmic reticulum ATPase (Homo sapiens, UniProt P55072, C522A), sequence (P55072 2-806 C522A limits assumed): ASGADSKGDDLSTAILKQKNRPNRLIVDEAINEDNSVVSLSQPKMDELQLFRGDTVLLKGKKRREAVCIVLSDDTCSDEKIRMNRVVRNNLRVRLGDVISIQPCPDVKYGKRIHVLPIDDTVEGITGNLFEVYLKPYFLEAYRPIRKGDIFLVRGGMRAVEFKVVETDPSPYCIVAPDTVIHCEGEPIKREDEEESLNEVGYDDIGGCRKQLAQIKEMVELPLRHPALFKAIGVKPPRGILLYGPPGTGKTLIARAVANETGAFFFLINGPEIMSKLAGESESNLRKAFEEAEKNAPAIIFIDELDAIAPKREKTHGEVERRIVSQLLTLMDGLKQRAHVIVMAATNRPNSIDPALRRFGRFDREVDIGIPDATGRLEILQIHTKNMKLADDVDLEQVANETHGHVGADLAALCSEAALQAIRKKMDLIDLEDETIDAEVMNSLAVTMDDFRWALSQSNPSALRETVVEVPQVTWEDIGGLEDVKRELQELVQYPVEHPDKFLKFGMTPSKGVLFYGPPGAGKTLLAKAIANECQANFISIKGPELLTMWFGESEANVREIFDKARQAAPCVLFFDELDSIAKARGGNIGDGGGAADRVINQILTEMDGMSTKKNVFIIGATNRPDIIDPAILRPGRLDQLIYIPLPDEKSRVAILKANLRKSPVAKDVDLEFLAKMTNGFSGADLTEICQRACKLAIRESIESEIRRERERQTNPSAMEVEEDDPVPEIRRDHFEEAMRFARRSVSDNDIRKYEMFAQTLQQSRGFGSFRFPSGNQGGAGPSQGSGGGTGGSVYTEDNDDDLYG

[7] = molecular target: Transitional endoplasmic reticulum ATPase (Homo sapiens, UniProt P55072); test: p97 ATPase inhibitors, dose response, biochemical (AID 1534)
Transitional endoplasmic reticulum ATPase (Homo sapiens, UniProt P55072), sequence (P55072 whole entry): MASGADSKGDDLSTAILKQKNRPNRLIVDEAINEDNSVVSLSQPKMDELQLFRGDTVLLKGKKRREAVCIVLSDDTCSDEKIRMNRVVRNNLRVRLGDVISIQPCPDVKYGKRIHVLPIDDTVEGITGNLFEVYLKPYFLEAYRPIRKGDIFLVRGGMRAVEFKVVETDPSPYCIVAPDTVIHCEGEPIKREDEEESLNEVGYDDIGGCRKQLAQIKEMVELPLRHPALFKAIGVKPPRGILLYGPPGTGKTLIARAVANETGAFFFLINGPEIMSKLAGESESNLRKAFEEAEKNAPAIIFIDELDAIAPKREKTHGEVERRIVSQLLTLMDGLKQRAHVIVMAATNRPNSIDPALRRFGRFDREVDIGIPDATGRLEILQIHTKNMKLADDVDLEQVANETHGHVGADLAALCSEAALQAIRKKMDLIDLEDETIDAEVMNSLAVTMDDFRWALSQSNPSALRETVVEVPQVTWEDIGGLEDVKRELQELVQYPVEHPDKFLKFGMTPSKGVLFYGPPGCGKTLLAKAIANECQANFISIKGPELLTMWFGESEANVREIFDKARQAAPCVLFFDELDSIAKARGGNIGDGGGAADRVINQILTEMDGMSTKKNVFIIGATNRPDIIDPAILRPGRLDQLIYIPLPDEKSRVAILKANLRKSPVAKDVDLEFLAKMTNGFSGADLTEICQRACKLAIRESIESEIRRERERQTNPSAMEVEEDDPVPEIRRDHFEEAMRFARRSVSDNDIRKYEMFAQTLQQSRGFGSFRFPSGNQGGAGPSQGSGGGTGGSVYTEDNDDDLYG

[8] = molecular target: Peroxisome proliferator-activated receptor gamma/Nuclear receptor coactivator 2 (Homo sapiens, UniProt P37231); format: functional;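 also: agonist potency for raising coactivator recruitment to the receptor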
[9] = molecular target: Peroxisome proliferator-activated receptor gamma/Nuclear receptor coactivator 1 (Homo sapiens, UniProt P37231); format: functional;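 also: agonist potency as compounds enhance coactivator SRC-1 recruitment to PPARgamma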
Peroxisome proliferator-activated receptor gamma/Nuclear receptor coactivator 1, sequence (P37231 whole entry): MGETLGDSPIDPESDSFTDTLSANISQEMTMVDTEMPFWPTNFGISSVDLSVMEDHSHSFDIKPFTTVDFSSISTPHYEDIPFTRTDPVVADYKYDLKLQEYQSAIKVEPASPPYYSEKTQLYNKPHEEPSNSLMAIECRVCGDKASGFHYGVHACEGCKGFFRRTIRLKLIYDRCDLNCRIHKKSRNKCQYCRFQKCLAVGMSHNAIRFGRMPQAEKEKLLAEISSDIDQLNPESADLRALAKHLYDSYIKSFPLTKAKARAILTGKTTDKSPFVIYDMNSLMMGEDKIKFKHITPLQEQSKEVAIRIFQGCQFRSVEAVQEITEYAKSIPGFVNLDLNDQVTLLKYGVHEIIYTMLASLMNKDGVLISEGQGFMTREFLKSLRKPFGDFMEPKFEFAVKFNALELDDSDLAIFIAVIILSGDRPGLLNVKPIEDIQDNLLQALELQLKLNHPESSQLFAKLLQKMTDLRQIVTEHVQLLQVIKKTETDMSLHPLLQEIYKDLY
Peroxisome proliferator-activated receptor gamma/Nuclear receptor coactivator 1, sequence (Q15788 whole entry, further chain): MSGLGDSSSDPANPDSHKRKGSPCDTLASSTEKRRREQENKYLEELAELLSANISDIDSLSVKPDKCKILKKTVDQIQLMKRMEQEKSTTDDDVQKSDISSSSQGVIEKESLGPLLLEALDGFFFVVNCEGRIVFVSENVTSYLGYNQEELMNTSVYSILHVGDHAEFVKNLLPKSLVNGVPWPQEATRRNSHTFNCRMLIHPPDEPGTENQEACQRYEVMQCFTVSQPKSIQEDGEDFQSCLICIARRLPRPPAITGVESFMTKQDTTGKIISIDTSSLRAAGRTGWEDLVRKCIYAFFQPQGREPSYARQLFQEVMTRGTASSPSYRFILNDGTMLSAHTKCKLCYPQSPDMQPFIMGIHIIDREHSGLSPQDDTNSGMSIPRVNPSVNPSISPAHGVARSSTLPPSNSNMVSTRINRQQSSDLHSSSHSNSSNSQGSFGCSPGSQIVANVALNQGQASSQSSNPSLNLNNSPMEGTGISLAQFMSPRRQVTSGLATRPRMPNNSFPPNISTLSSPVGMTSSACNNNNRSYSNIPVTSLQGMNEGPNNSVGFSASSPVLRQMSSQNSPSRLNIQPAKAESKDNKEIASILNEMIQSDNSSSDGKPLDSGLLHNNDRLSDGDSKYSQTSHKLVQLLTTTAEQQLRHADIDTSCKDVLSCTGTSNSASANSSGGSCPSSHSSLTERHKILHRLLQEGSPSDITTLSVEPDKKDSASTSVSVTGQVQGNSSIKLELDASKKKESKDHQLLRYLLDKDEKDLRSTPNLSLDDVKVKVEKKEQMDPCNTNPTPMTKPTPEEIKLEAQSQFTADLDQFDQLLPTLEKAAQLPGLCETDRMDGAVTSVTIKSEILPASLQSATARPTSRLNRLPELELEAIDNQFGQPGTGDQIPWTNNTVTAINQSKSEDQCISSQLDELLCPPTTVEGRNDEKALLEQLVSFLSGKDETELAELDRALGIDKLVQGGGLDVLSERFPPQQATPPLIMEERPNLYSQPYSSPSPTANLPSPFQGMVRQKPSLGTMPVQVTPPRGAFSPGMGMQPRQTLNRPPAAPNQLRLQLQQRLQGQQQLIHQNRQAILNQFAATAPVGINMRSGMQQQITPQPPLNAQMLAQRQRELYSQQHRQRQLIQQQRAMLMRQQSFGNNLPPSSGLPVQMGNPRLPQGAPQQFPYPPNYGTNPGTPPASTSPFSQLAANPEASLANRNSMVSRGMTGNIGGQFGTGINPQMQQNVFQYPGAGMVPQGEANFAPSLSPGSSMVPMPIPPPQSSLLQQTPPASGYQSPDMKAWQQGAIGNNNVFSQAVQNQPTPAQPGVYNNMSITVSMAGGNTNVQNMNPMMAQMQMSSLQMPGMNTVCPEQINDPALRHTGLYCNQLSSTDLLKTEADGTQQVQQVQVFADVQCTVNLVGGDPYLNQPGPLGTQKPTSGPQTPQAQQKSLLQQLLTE

[10] = molecular target: Peroxisome proliferator-activated receptor gamma/Nuclear receptor coactivator 3 (Homo sapiens, UniProt P37231); format: functional;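 also: agonist potency for raising coactivator recruitment to the receptor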
[11] = molecular target: T2, Heat shock factor protein 1 (Mus musculus, UniProt P38532); test: decrease of HSF1-responsive luciferase luminescence – cell-based, NIH3T3, dose retest, confirmation (AID 2382); format: functional;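 also: NIH3T3 fibroblasts with HSF1-driven luciferase reporter stressed by proteasome inhibitor MG132; luminescence from HSF1-driven luciferase expression after 8 hours of MG132 stress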
T2 sequence (P38532 whole entry): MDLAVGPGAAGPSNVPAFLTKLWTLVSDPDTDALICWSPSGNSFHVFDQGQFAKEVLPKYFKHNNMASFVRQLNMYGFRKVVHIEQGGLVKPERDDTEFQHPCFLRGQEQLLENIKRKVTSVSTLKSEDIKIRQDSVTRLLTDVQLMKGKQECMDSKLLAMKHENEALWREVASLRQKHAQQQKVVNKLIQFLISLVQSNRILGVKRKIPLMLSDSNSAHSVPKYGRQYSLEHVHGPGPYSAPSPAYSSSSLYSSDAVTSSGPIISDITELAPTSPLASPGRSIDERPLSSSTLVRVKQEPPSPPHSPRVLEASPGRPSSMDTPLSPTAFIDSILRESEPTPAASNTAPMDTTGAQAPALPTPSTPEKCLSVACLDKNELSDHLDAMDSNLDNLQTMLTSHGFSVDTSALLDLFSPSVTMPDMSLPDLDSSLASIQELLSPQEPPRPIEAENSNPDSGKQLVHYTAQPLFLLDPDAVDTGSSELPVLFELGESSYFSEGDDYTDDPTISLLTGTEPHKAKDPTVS

[12] = molecular target: T3, Mannose-6-phosphate isomerase (Homo sapiens, UniProt P34949); test: MPI inhibition at elevated mannose 6-phosphate – biochemical, fluorescence intensity, high mannose 6-phosphate, primary screen (AID 1220)
T3 sequence (P34949 whole entry): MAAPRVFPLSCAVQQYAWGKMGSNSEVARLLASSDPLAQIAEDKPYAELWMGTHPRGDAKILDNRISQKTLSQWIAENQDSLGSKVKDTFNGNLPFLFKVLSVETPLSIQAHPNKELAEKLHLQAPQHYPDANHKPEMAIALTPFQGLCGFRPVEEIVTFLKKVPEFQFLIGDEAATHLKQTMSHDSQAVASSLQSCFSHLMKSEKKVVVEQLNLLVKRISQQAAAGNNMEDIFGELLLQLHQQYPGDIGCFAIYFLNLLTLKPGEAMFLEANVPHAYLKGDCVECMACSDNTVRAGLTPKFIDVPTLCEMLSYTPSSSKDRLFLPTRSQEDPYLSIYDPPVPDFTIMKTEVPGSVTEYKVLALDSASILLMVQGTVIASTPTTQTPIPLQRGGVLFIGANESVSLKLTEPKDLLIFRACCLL

Nonstructural protein 1 = Nonstructural protein 1 (Influenza A virus, UniProt Q194T2); format: functional, Influenza A virus (A/California/07/2009(H1N1))
Vero = test: viability of Vero cells under compound – cytotoxicity control for flavivirus capping enzyme inhibitors (AID 588742); format: functional; details: Chlorocebus sabaeus
[13] = Trypanosoma cruzi growth suppression in host cells – NIH3T3 host cells, beta-gal luminescence, confirmation (AID 2044); format: functional, cell-based;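 also: intracellular parasites grown in NIH/3T3 mouse fibroblasts as host cells; luminescent beta-galactosidase reporter signal from transgenic T. cruzi replicating inside host cells; inhibitors lower the luminescence signal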
[14] = NIH3T3 cell viability loss – ATP luminescence, mouse fibroblasts, counter-screen, dose response (AID 2010); format: functional, cell-based;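 also: cells exposed to compound for about 90 hours before reading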
[15] = molecular target: T4, Alkaline phosphatase, tissue-nonspecific isozyme (Homo sapiens, UniProt P05186)
T4 sequence (P05186 whole entry): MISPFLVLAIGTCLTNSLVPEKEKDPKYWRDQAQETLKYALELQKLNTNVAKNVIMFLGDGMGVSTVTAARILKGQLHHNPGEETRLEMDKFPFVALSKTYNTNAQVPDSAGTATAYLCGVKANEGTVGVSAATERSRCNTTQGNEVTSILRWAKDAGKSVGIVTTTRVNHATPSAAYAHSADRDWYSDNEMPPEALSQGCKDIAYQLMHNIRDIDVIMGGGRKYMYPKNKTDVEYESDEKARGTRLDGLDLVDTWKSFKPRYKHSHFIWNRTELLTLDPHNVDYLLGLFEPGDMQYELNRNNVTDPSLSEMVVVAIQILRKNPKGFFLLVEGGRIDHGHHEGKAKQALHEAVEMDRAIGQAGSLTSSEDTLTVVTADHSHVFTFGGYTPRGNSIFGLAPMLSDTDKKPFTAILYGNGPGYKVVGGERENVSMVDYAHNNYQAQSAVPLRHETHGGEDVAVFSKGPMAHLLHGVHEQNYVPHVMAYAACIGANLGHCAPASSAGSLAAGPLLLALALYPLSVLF

[16] = Luminescence Cell-Based Dose Confirmation HTS to Identify Inhibitors of Polyadenylation.; format: functional
[17] = HEK-293T cell viability reduction – luminescence, B-cell screen hits, cytotoxicity control for BCR NF-kB inhibitor project, dose response (AID 489021); format: functional, cell-based;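 also: HEK-293T cells carrying an NF-kB luciferase reporter; cells exposed to compound for about 14 hours before viability readout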
[18] = molecular target: Sphingosine 1-phosphate receptor 4 (Homo sapiens, UniProt O95977); test: Fluorescence dose response cell-based high throughput screening assay for antagonists of the Sphingosine 1-Phosphate Receptor 4 (S1P4). [Related pubchem assays: 1524 (Confirmation in triplicates.), 1510 (Primary screen.)]; format: functional
[19] = system: Streptococcus sp. 'group A'; test: Streptococcus pyogenes SK(-)GAS viability under kanamycin – luminescence, BacTiterGlo, confirmation, counter-screen for streptokinase expression inhibitor project, dose response (AID 1900); format: functional, organism-based
Streptokinase A = molecular target: T5, Streptokinase A (Streptococcus pyogenes serotype M1, UniProt P10520); test: viability-normalized secreted streptokinase activity reduction – plasminogen activation absorbance, OD405, dose response (AID 1914); format: functional, Streptococcus pyogenes M1 GAS;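 also: secreted streptokinase activity via plasminogen activation per viability signal from cell pellet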
T5 sequence (P10520 whole entry): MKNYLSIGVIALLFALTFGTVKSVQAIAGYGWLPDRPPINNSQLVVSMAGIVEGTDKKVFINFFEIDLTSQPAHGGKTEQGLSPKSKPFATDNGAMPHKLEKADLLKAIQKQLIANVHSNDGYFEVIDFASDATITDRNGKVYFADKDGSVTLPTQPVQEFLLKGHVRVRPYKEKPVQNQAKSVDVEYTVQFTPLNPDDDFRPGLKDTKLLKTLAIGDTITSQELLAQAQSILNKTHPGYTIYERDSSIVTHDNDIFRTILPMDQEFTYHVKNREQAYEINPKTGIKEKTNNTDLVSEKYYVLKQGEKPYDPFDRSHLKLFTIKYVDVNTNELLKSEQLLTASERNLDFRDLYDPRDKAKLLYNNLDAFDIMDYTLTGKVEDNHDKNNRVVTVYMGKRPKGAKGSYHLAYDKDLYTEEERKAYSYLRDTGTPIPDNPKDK

Streptococcus = test: GAS UMAA2166 growth inhibition – luminescence, BacTiterGlo, counter-screen for streptokinase expression inhibitor project, dose response (AID 1915); format: functional, organism-based;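 also: potency for reduction of bacterial viability or growth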
X-box-binding protein 1 = X-box-binding protein 1 (Homo sapiens, UniProt P17861); format: functional, Cricetulus griseus;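 also: confirmatory dose-response counter-screen serving a CHOP assay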
X-box-binding protein 1, sequence (P17861 whole entry, the tested form may be a part): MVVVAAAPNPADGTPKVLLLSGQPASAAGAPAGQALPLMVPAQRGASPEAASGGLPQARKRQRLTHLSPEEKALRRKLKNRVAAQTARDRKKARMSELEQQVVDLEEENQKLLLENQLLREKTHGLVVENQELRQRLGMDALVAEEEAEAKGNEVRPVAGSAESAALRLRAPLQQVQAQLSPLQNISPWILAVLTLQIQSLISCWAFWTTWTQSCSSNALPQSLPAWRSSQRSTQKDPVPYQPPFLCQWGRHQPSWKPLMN

[20] = molecular target: Disintegrin and metalloproteinase domain-containing protein 17 (Homo sapiens, UniProt P78536); test: inhibition of ADAM17 substrate cleavage – biochemical, quenched FRET substrate, counter-screen for ADAM10 exosite inhibitor project, dose response (AID 743253)
[21] = viability of PTEN-deleted HCT116 cells – cell-based, HCT116 PTEN knockout, dose response (AID 1047); format: functional;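 also: HCT116 colon tumor cells with PTEN knocked out; cells exposed to compound for 60 hours before readout; potency for loss of cell viability measured by luminescence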
[22] = viability of HCT116 lacking mutant beta-catenin – cell-based, human colon tumor, dose response (AID 1045); format: functional;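 also: HCT116 colon tumor cells with beta catenin knocked out; cells exposed to compound for 60 hours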
[23] = Luminescence Cell-Based Dose Retest to Confirm Inhibitors of Cancer Stem Cells. [Related pubchem assays (depositor defined):AID2717, AID2721]; format: functional; details: Homo sapiens
Estrogen receptor beta = Estrogen receptor beta (Homo sapiens, UniProt Q92731);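 also: recombinant ER-beta bound to coactivator SRC1 peptide in presence of estradiol agonist; inhibitors block coactivator peptide binding and lower the FRET signal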
H9c2 = test: cells; format: functional, cell-based; details: Rattus norvegicus, H9c2, Myocardium;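 also: confirmatory concentration-response retest of ultra-high-throughput screening hits for modulation of myocardial damage; cell death induced by hydrogen peroxide oxidative stress; compound pretreatment for 60 min then peroxide exposure for 2 h; potency is for protecting the cells against peroxide damage rather than for killing them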
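For AC50 in this document: cells exposed to compound for roughly 70 hours or longer before luminescence read.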

14-3-3 protein gamma, sequence (P61981 whole entry): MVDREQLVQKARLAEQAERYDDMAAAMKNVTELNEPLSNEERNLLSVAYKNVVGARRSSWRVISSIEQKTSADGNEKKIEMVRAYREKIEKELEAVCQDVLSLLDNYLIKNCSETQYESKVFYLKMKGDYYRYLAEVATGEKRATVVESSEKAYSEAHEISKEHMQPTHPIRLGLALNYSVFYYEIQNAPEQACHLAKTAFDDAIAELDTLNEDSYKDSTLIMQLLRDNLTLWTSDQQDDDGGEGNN

For `CN(Cc1ccccc1)C(=S)NC(=O)c1ccc(-c2ccccc2)cc1`, the CC50 [1] was > 40 µM (active).
With `C#CCN(C)C(C)Cc1ccccc1` (centres undefined) the IC50 (14-3-3 protein gamma) was > 50 µM (not active).
In the case of `CN(C)C=O.O=C(Nc1cccc(S(=O)(=O)NC2=NCCCCC2)c1)c1cc(-c2ccco2)nc2ccccc12`, the IC50 (Genome polyprotein) is reported as > 49.8 µM (not active), the IC50 [2] is reported as 1.69 µM (active) and the IC50 [3] is reported as 6.77 µM (active). The IC50 [4] was 23.1 µM (active).
In the case of `Cc1cc(N2CCCCCC2)nc(-c2ccccc2O)n1`, the CC50 [1] is reported as > 40 µM (active).
In the case of `O=C(CCCSc1ccccc1)Nc1nc(-c2ccco2)c(-c2ccco2)s1`, the IC50 (NS3) is reported as 5.62 µM (active).
For `CC(C)c1nc2sc3c(S)ncnc3c2c2c1CCC2`, the CC50 [5] was 14.3 µM (active), the IC50 [6] was > 50 µM (not active) and the IC50 [7] was 42.2 µM (not active).
In the case of `Cc1ccc(CN2CCN(Cc3cccc(OCCO)c3)CC2CCO)o1` (centres undefined), the EC50 [8] is reported as > 79.4 µM (not active), the EC50 [9] is reported as > 79.4 µM (not active) and the EC50 [10] is reported as > 79.4 µM (not active). For the same compound, the EC50 [11] was > 195 µM (not active).
With `C=CCN1C=C/C(=C/c2ccc3cc(C)ccc3[n+]2CC)c2ccccc21` the IC50 [12] was 32.9 µM (active), the IC50 (Nonstructural protein 1) was 7.64 µM (active) and the CC50 (Vero) was 4.96 µM (active).
In the case of `C=CCn1c(SCC(=O)NCCCC)nc2scc(-c3ccco3)c2c1=O`, the IC50 (NS3) is reported as 37.5 µM (not active).
For `O=C(Nc1ccncc1)Nc1cccc(Cl)c1Cl`, the EC50 [13] was < 0.1 µM (active), the EC50 [14] was > 60 µM (not active) and the EC50 (cells) was 0.209 µM (active).
In the case of `Cc1cc(C)c(NC(=O)Cn2c(=O)n(-c3ccc(CC(=O)NCC4CCCO4)cc3)c(=O)c3ccccc32)c(C)c1` (centres undefined), the EC50 [15] is reported as > 100 µM (not active).
In the case of `COC(=O)C1=C(C)N(C)C(C)=C(C(=O)OC)C1c1ccc(C(=O)OC)cc1`, the IC50 (14-3-3 protein gamma) is reported as > 50 µM (not active).
In the case of `CC(c1ccccc1)C(Cc1nc2ccccc2[nH]1)c1nc2ccccc2[nH]1` (centres undefined), the EC50 [15] is reported as 61.3 µM (not active).
For `CCN(CC)C(=O)Oc1ccc2c(c1)O/C(=C\c1ccco1)C2=O`, the EC50 [16] was > 120 µM (not active).
With `CCc1ccc(/C=C2\SC(=S)N(CCC(=O)NC3=NCCS3)C2=O)cc1` the IC50 [17] was > 80 µM (inactive).
In the case of `CN[C@H]1C[C@H]2O[C@@](C)([C@H]1OC)n1c3ccccc3c3c4c(c5c6ccccc6n2c5c31)C(=O)NC4`, the IC50 [18] is reported as 0.183 µM (active).
For `COc1ccc(CCN2C(=O)c3[nH]nc(-c4ccccc4O)c3C2c2cccc(Cl)c2)cc1` (centres undefined), the EC50 [19] was 5.5 µM (active), the EC50 (Streptokinase A) was 17.1 µM (active) and the EC50 (Streptococcus) was 17.6 µM (active). The “Absolute IC50 (XBP1)” value (X-box-binding protein 1) was 10 µM and the IC50 [20] was > 69.5 µM (inactive).
For `Cc1cc(C2(c3ccc(O)c(C)c3)C(=O)Nc3ccccc32)ccc1O`, the EC50 [21] was 17.4 µM (active), the EC50 [22] was 17 µM (active) and the AC50 [23] was 5.36 µM (active). For the same compound, the “Absolute IC50 (XBP1)” value (X-box-binding protein 1) was 10 µM.
In the case of `O=C(Nc1ccc(F)cc1)C1C(c2ccccc2)C1(Cl)Cl` (centres undefined), the IC50 [6] is reported as > 50 µM (not active) and the IC50 [7] is reported as > 50 µM (not active).
For `CCOC(=O)c1s/c(=N\C(=O)c2cc(OC)c(OC)c(OC)c2)n(C)c1C`, the EC50 [8] was 30 µM (not active), the EC50 [9] was 42 µM (not active) and the EC50 [10] was 49.7 µM (not active).
With `NC(=O)c1cccc2c1C(=O)N(C1CCCCC1)C2` the IC50 (Estrogen receptor beta) was 12.5 µM (active) and the IC50 (H9c2) was > 79 µM (inactive).
